The values that follow come from US20260223850A1, “SUBSTITUTED PYRROLIDONE COMPOUND, PREPARATION METHOD THEREFOR, COMPOSITION AND APPLICATION THEREOF” (QINGDAO KINGAGROOT CHEMICAL COMPOUND CO., LTD., priority 2023, published 2026).

Molecules are shown by their SMILES.

Format in all cases: in vivo
In series [1] the test system is Digitaria sanguinalis. The experiment in a line: Seedling stage sealing experiment for water-seeding. The settings on record: 120 g a.i./ha, 15 days, fresh weight control rate. Summed up: (§1)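 Seeds sown on soil in pots kept moist in water-filled boxes, then sprayed with acetone/water compound solution at 120, 60, 30 and 15 g a.i./ha, in triplicate. Effect scored after 15 days in greenhouse as 0–9 levels of fresh-weight growth control, averaged.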

Series [2] relates to Echinochloa crusgalli. The series is described as above. The settings on record: 120 g a.i./ha, 15 days, fresh weight control rate.
In series [3] the test system is Leptochloa chinensis. The series is described as above. The settings on record: 120 g a.i./ha, 15 days, fresh weight control rate. A digest of the protocol: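 Seeds sown in soil-filled bowls kept moist in water-filled boxes; compound in acetone diluted with water and spray-applied at 120, 60, 30 and 15 g a.i./ha, triplicate. After 15 days in greenhouse, fresh-weight growth control scored on a 0–9 scale (9 = dead, 0 = no effect), averaged.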

Series [4] has as its system Echinochloa phyllopogon. The description is as above. The settings on record: 120 g a.i./ha, 15 days, fresh weight control rate. Summed up: as §1
The subject of series [5] is Huaidao (rice cultivar). The experiment in a line: Seedling stage sealing experiment for water-seeding (crop safety). The settings on record: 120 g a.i./ha, 15 days, fresh weight control rate; for Huaidao (rice cultivar) plant damage level (growth control rate): spray, seedling stage sealing for water-seeding; for Huaidao (rice cultivar) plant damage level: seedling stage sealing. Summed up:
as §1

[6] abbreviates: spray, seedling stage sealing for water-seeding.

As for `CN1C[C@H](c2cc(F)cc(F)c2)[C@@H](C(=O)Nc2cnn(C)c2Cl)C1=O` [115′], the “Digitaria sanguinalis activity level (growth control rate)” value (“Digitaria sanguinalis activity level” below) in series [1] (seedling stage sealing) is 8 (Level 8: growth control rate greater than or equal to 90% and less than 100%). The “Echinochloa crusgalli activity level (growth control rate)” value (from here on “Echinochloa crusgalli activity level”) in series [2] (seedling stage sealing) was found to be 9. Besides, in series [3], the “Leptochloa chinensis activity level (growth control rate)” value (from here on “Leptochloa chinensis activity level”) is 8 (Level 8: growth control rate greater than or equal to 90% and less than 100%).
Take `Cc1cccc([C@H]2CN(C)C(=O)[C@@H]2C(=O)Nc2cnn(C(F)F)c2Cl)c1` [131′]: the “Digitaria sanguinalis activity level” value in series [1] (seedling stage sealing) is 9. Also, in series [2] (seedling stage sealing), the “Echinochloa crusgalli activity level” value is 9. For the same compound, the “Echinochloa phyllopogon activity level (growth control rate)” value (from here on “Echinochloa phyllopogon activity level”) in series [4] (seedling stage sealing) was 9. The “Leptochloa chinensis activity level” value in series [3] is given as 9.
Regarding `Cc1cccc([C@H]2CN(C)C(=O)[C@@H]2C(=O)Nc2cnn(C)c2C2CC2)c1` [139′], the “Digitaria sanguinalis activity level” value in series [1] (seedling stage sealing) was 7 (Level 7: growth control rate greater than or equal to 80% and less than 90%). In addition, the “Echinochloa crusgalli activity level” value in series [2] (seedling stage sealing) was determined as 9. Further, the “Leptochloa chinensis activity level” value in series [3] came to 9.
On to `C=CCn1ncc(NC(=O)[C@H]2C(=O)N(C)C[C@@H]2c2cccc(C(F)(F)F)c2)c1Cl` [162′], for which, in series [1] (seedling stage sealing), the “Digitaria sanguinalis activity level” value is 8 (Level 8: growth control rate greater than or equal to 90% and less than 100%). For the same compound, in series [2] (seedling stage sealing), the “Echinochloa crusgalli activity level” value was determined as 9. In addition, the “Leptochloa chinensis activity level” value in series [3] worked out at 9.
Take `CN1C[C@H](c2cc(C(F)(F)F)cc(C(F)(F)F)c2)[C@@H](C(=O)Nc2cnn(C)c2Cl)C1=O` [295′]: the “Digitaria sanguinalis activity level” value in series [1] (seedling stage sealing) was 9. The “Echinochloa crusgalli activity level” value in series [2] (seedling stage sealing) was 7 (Level 7: growth control rate greater than or equal to 80% and less than 90%). The “Echinochloa phyllopogon activity level” value in series [4] (seedling stage sealing) is 6 (Level 6: growth control rate greater than or equal to 70% and less than 80%). The “Leptochloa chinensis activity level” value in series [3] was determined as 9.
With `COc1cc(F)cc([C@H]2CN(C)C(=O)[C@@H]2C(=O)Nc2cnn(C)c2Cl)c1` [298′], the “Digitaria sanguinalis activity level” value in series [1] (seedling stage sealing) is recorded as 9. The “Echinochloa crusgalli activity level” value in series [2] (seedling stage sealing) is 7 (Level 7: growth control rate greater than or equal to 80% and less than 90%). Moreover, the “Echinochloa phyllopogon activity level” value in series [4] (seedling stage sealing) is 6 (Level 6: growth control rate greater than or equal to 70% and less than 80%). For the same compound, the “Leptochloa chinensis activity level” value in series [3] is 7 (Level 7: growth control rate greater than or equal to 80% and less than 90%).
With `Cc1ccc([C@H]2CN(C)C(=O)[C@@H]2C(=O)Nc2cnn(C)c2Cl)cc1F` [313′], the “Digitaria sanguinalis activity level” value in series [1] (seedling stage sealing) is reported as 9. Further, the “Echinochloa crusgalli activity level” value in series [2] (seedling stage sealing) was found to be 9. Moreover, the “Leptochloa chinensis activity level” value in series [3] is recorded as 9.
Consider `CN1C[C@H](c2cc(F)cc(C(F)F)c2)[C@@H](C(=O)Nc2cnn(C)c2Cl)C1=O` [556′], for which the “Digitaria sanguinalis activity level” value in series [1] (setting [6]) amounted to 9. Besides, in series [2] (setting [6]), the “Echinochloa crusgalli activity level” value is recorded as 9. Moreover, the “Echinochloa phyllopogon activity level” value in series [4] (setting [6]) was 9. In series [5], the “Huaidao (rice cultivar) plant damage level (growth control rate)” value (shortened to “Huaidao … (growth control rate)”) is 2 (Level 2: growth control rate greater than or equal to 10% and less than 20%).
With `Cc1cc([C@H]2CN(C)C(=O)[C@@H]2C(=O)Nc2cnn(C(F)F)c2Cl)cc(C(F)(F)F)c1` [560′], the “Digitaria sanguinalis activity level” value in series [1] (setting [6]) was found to be 9. The “Echinochloa crusgalli activity level” value in series [2] (setting [6]) amounted to 9. Further, in series [4] (setting [6]), the “Echinochloa phyllopogon activity level” value was 9. In addition, the “Huaidao … (growth control rate)” value in series [5] amounted to 0.
As to `Cc1cc([C@H]2CN(C)C(=O)[C@@H]2C(=O)Nc2cnn(C)c2C2CC2)cc(C(F)(F)F)c1` [561′], the “Digitaria sanguinalis activity level” value in series [1] (setting [6]) came to 9. Further, the “Echinochloa crusgalli activity level” value in series [2] (setting [6]) was determined as 9. In addition, in series [4] (setting [6]), the “Echinochloa phyllopogon activity level” value is on record as 9. Also, the “Huaidao … (growth control rate)” value in series [5] is on record as 1 (Level 1: growth control rate less than 10%).
On to `COc1cccc(C2CN(C)C(=O)C2C(=O)Nc2cnn(C)c2Cl)c1` (stereo not drawn) [Compound 28], for which the “Digitaria sanguinalis activity level” value in series [1] (seedling stage sealing) is 9. Besides, in series [2] (seedling stage sealing), the “Echinochloa crusgalli activity level” value was found to be 9. In addition, the “Echinochloa phyllopogon activity level” value in series [4] (seedling stage sealing) turned out to be 9. Further, in series [5], the “Huaidao (rice cultivar) plant damage level” value was determined as 0.
Regarding `CC(C)Oc1cccc(C2CN(C)C(=O)C2C(=O)Nc2cnn(C)c2Cl)c1` (stereo not drawn) [Compound 29], in series [1] (seedling stage sealing), the “Digitaria sanguinalis activity level” value is recorded as 9. Further, the “Echinochloa crusgalli activity level” value in series [2] (seedling stage sealing) is recorded as 9. The “Echinochloa phyllopogon activity level” value in series [4] (seedling stage sealing) is 9. For the same compound, the “Huaidao (rice cultivar) plant damage level” value in series [5] is given as 0.
Turning to `Cc1ccc(C2CN(C)C(=O)C2C(=O)Nc2cnn(C)c2Cl)cc1C(F)(F)F` (stereo not drawn) [Compound 56], the “Digitaria sanguinalis activity level” value in series [1] (seedling stage sealing) is on record as 9. The “Echinochloa crusgalli activity level” value in series [2] (seedling stage sealing) is 9. Further, in series [4] (seedling stage sealing), the “Echinochloa phyllopogon activity level” value was 6 (Level 6: growth control rate greater than or equal to 70% and less than 80%). Moreover, in series [3], the “Leptochloa chinensis activity level” value amounted to 9.
For the compound `CN1CC(c2cc(F)c(F)c(F)c2)C(C(=O)Nc2cnn(C)c2Cl)C1=O` (stereo not drawn) [Compound 114], the “Digitaria sanguinalis activity level” value in series [1] (seedling stage sealing) is 9. For the same compound, the “Echinochloa crusgalli activity level” value in series [2] (seedling stage sealing) is listed as 9. For the same compound, the “Echinochloa phyllopogon activity level” value in series [4] (seedling stage sealing) was 6 (Level 6: growth control rate greater than or equal to 70% and less than 80%). For the same compound, the “Leptochloa chinensis activity level” value in series [3] stood at 9.
For `Cc1cc(C)cc(C2CN(C)C(=O)C2C(=O)Nc2cnn(C)c2Cl)c1` (stereo not drawn) [Compound 117], the “Digitaria sanguinalis activity level” value in series [1] (seedling stage sealing) is given as 9. For the same compound, the “Echinochloa crusgalli activity level” value in series [2] (seedling stage sealing) is on record as 9. The “Echinochloa phyllopogon activity level” value in series [4] (seedling stage sealing) is 6 (Level 6: growth control rate greater than or equal to 70% and less than 80%). In series [5], the “Huaidao (rice cultivar) plant damage level” value stood at 0. Besides, the “Leptochloa chinensis activity level” value in series [3] is 9.
For the compound `COc1c(Cl)ccc(C2CN(C)C(=O)C2C(=O)Nc2cnn(C)c2Cl)c1F` (stereo not drawn) [Compound 118], the “Digitaria sanguinalis activity level” value in series [1] (seedling stage sealing) was found to be 9. In addition, the “Echinochloa crusgalli activity level” value in series [2] (seedling stage sealing) was 9. Besides, the “Echinochloa phyllopogon activity level” value in series [4] (seedling stage sealing) was 6 (Level 6: growth control rate greater than or equal to 70% and less than 80%). Moreover, in series [3], the “Leptochloa chinensis activity level” value is 6 (Level 6: growth control rate greater than or equal to 70% and less than 80%).
Consider `CN1CC(c2cccc(C(F)(F)F)c2)C(C(=O)Nc2cnn(C)c2F)C1=O` (stereo not drawn) [Compound 119], for which the “Digitaria sanguinalis activity level” value in series [1] (seedling stage sealing) came to 9. The “Echinochloa crusgalli activity level” value in series [2] (seedling stage sealing) worked out at 9. Also, the “Echinochloa phyllopogon activity level” value in series [4] (seedling stage sealing) came out at 9. Further, the “Huaidao (rice cultivar) plant damage level” value in series [5] was determined as 0.
Take `CN1CC(c2cccc(C(F)(F)F)c2)C(C(=O)Nc2cnn(C)c2Br)C1=O` (stereo not drawn) [Compound 120]: the “Digitaria sanguinalis activity level” value in series [1] (seedling stage sealing) came to 9. Moreover, the “Echinochloa crusgalli activity level” value in series [2] (seedling stage sealing) stood at 9. Moreover, the “Echinochloa phyllopogon activity level” value in series [4] (seedling stage sealing) is 9. Also, in series [5], the “Huaidao (rice cultivar) plant damage level” value stood at 0.
As for `CN1CC(c2cccc(C(F)(F)F)c2)C(C(=O)Nc2cnn(C)c2)C1=O` (stereo not drawn) [Compound 156], the “Digitaria sanguinalis activity level” value in series [1] (seedling stage sealing) was 7 (Level 7: growth control rate greater than or equal to 80% and less than 90%). For the same compound, the “Echinochloa crusgalli activity level” value in series [2] (seedling stage sealing) is 6 (Level 6: growth control rate greater than or equal to 70% and less than 80%). In series [4] (seedling stage sealing), the “Echinochloa phyllopogon activity level” value is 6 (Level 6: growth control rate greater than or equal to 70% and less than 80%). Besides, in series [5], the “Huaidao (rice cultivar) plant damage level” value was found to be 0.
Consider `CCCCOc1cccc(C2CN(C)C(=O)C2C(=O)Nc2cnn(C)c2Cl)c1` (stereo not drawn) [Compound 221], for which the “Digitaria sanguinalis activity level” value in series [1] (seedling stage sealing) was found to be 9. Further, the “Leptochloa chinensis activity level” value in series [3] came to 9.
Take `CN1CC(c2ccc(Cl)s2)C(C(=O)Nc2cnn(C)c2Cl)C1=O` (stereo not drawn) [Compound 339]: the “Digitaria sanguinalis activity level” value in series [1] (seedling stage sealing) was 7 (Level 7: growth control rate greater than or equal to 80% and less than 90%). Besides, the “Echinochloa crusgalli activity level” value in series [2] (seedling stage sealing) came out at 9. Further, in series [3], the “Leptochloa chinensis activity level” value is 6 (Level 6: growth control rate greater than or equal to 70% and less than 80%).
